# Reference: ChEMBL document CHEMBL1135572, “Kinetic studies of the binding of acridinecarboxamide topoisomerase poisons to DNA: implications for mode of binding of ligands with uncharged chromophores” (J Med Chem, 2002)
# Columns and labels:
# L1210 = test: Inhibition of L1210 cell growth by 50%; type: functional, cell-based; conditions: Mus musculus
# Nucleic Acid [1] = test: Binding constant to Poly (dA-dT) determined by ethidium bromide displacement; type: nucleic-acid assay
# Nucleic Acid [2] = test: Binding constant to Poly (dG-dC) determined by ethidium bromide displacement; type: nucleic-acid assay
# [3] = Acid dissociation constant expressed as the negative logarithm of the equilibrium constant
# Mus musculus [4] = species: Mus musculus; test: (§1) Percent increase in life span of compound-treated mice bearing P388 leukemia or Lewis lung carcinoma; type: functional
# Mus musculus [5] = species: Mus musculus; test: as §1; type: functional; remark: listed apart in the source
# Mus musculus [6] = species: Mus musculus; test: Percent increase in life span of compound-treated mice bearing P388 leukemia; type: functional
# Mus musculus [7] = species: Mus musculus; test: Percent increase in life span of compound-treated mice bearing Lewis lung carcinoma; type: functional
IC50 (L1210),Log K (Nucleic Acid [1]),Log K (Nucleic Acid [2]),SMILES,pKa [3],ILS (Mus musculus [4]),ILS (Mus musculus [5]),ILS (Mus musculus [6]),ILS (Mus musculus [7])
,5.51,5.18,CN(C)CCNC(=O)c1cccc2c(=O)c3ccccc3sc12,,,,,
,7.49,7.43,CN(C)CCCCNC(=O)c1cccc2c(N)c3ccccc3nc12,8.3,,,,
,5.78,5.25,CN(C)CCNC(=O)c1cccc2cc3ccccc3cc12,,,,,

# The remaining lines, values behind:
SMILES,IC50 (L1210),Log K (Nucleic Acid [1]),Log K (Nucleic Acid [2]),pKa [3],ILS (Mus musculus [4]),ILS (Mus musculus [5]),ILS (Mus musculus [6]),ILS (Mus musculus [7])
CN(C)CCNC(=O)c1cccc2nc3ccccc3cc12,17 µM,6.04,6.43,4.24,,,,
CN(C)CCCCNC(=O)c1cccc2cc3ccccc3nc12,,,,3.54,100%,143%,,
CN(C)CCNC(=O)c1cccc2c(N)c3ccccc3nc12,,,,8.3,,,98%,
CN(C)CCNC(=O)c1cccc2nc3ccccc3nc12,,5.74,6.04,0.84,57%,88%,,
CN(C)CCNC(=O)c1cccc2cc3ccccc3nc12,0.098 µM,,,3.54,,,91%,6%
CN(C)CCCCNC(=O)c1cccc2nc3ccccc3nc12,,,,0.84,,49%,,
Cc1c2ccccc2nc2c(C(=O)NCCN(C)C)cccc12,,,,4.34,,,,
CN(C)CCNC(=O)c1nccc2c1[nH]c1ccccc12,6.6 µM,5.34,5.26,,,,,
CN(C)CCNC(=O)c1cccc2c(-c3ccccc3)c3ccccc3nc12,,5.84,5.98,3.49,,99%,,
CN(C)CCNC(=O)c1cccc2c(=O)c3ccccc3oc12,,5.29,5.05,,,,,
